Data on 22 compounds can be found in ChEMBL document CHEMBL1909046, “DrugMatrix in vitro pharmacology data”.

Assay [1] has as its target Acetylcholinesterase (Homo sapiens, UniProt P22303). As to the kind of experiment: DRUGMATRIX: Acetylcholinesterase enzyme inhibition (substrate: acetylthiocholine). In kind it is cell-based, HEK293. Conditions: hek293; Not Active = under 50% inhibition at 10 µM.
Assay [2] addresses Epidermal growth factor receptor (Homo sapiens, UniProt P00533). Nature of the assay: DRUGMATRIX: Protein Tyrosine Kinase, EGF Receptor enzyme inhibition (substrate: Poly(Glu:Tyr)). It counts as cell-based, Insect cells. Conditions: insect cells; Not Active = under 50% inhibition at 10 µM.
Assay [3] is described as follows: DRUGMATRIX: Imidazoline I2, Central radioligand binding (ligand: [3H] Idazoxan). It counts as cell membranes, Rattus norvegicus, Wistar, Cerebral cortex, Membrane. As to conditions: Not Active = under 50% inhibition at 10 µM.
Assay [4] addresses Cannabinoid receptor 1 (Homo sapiens, UniProt P21554). In kind it is cell membranes, Chem-1, Membrane. As to conditions: chem-1.
Assay [5] addresses T1, Muscarinic acetylcholine receptor M5 (Homo sapiens, UniProt P08912).
T1 sequence (P08912 whole entry): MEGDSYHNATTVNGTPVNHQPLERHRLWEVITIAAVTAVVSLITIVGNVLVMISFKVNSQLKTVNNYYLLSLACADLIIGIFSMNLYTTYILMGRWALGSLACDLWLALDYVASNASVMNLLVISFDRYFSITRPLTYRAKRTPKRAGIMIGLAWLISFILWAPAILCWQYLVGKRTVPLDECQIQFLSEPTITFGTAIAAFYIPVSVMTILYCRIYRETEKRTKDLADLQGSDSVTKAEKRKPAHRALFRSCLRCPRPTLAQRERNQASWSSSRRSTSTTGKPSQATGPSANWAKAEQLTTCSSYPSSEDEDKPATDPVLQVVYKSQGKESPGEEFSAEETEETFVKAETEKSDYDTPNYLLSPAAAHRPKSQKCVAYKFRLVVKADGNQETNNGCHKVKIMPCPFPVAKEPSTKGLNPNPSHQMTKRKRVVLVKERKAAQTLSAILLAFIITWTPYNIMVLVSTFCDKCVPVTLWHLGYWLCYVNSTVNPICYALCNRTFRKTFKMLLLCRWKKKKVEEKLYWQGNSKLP
In kind it is cell membranes, CHO-K1, Membrane.

Assay [6] can be described thus: DRUGMATRIX: Calcium Channel Type L, Dihydropyridine radioligand binding (ligand: [3H] Nitrendipine). In kind it is cell membranes, Rattus norvegicus, Wistar, Cerebral cortex, Membrane. As to conditions: Not Active = under 50% inhibition at 10 µM.

Cannabinoid receptor 1, sequence (P21554 whole entry): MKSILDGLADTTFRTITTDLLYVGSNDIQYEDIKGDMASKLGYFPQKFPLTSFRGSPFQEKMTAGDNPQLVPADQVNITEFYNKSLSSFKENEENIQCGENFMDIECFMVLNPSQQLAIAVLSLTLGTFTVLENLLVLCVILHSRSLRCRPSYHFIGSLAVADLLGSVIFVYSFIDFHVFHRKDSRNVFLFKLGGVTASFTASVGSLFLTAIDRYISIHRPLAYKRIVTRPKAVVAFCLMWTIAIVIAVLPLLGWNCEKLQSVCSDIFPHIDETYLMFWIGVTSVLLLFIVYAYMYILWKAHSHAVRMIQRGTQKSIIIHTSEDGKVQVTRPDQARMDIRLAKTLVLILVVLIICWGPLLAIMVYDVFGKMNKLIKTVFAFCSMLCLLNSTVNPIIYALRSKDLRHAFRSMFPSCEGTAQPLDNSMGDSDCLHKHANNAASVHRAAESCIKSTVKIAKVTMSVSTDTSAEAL
Epidermal growth factor receptor, sequence (P00533 whole entry): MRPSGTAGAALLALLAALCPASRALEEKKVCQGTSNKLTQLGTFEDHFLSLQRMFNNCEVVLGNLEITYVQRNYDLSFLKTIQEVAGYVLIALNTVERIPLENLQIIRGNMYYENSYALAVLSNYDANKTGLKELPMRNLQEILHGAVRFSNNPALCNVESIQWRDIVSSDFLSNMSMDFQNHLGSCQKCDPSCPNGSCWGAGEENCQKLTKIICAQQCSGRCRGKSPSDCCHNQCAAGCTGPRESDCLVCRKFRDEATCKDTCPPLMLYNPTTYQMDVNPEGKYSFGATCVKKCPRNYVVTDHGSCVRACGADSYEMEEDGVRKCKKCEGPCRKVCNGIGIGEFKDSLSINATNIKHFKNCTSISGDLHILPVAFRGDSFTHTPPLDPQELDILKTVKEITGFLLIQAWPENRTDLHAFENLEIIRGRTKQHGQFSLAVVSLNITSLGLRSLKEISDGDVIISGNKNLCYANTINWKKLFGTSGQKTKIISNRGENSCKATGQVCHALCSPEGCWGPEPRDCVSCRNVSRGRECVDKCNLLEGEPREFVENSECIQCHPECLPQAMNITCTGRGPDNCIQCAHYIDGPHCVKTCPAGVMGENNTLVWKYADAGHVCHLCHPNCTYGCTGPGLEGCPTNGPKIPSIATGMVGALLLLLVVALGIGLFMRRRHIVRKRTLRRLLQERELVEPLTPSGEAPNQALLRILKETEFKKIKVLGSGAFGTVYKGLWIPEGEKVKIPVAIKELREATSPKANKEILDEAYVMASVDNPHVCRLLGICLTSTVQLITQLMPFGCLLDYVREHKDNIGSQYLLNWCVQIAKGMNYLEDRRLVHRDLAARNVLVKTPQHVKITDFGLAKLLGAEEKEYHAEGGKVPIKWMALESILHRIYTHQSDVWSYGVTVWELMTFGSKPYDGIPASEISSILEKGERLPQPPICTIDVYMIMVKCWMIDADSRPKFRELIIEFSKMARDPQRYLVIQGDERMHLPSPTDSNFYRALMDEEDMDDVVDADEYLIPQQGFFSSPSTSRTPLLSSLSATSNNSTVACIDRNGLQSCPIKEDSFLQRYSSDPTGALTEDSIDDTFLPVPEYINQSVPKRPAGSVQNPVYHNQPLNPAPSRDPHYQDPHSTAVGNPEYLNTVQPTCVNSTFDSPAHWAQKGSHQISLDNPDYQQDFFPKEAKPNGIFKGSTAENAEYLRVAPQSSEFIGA
Acetylcholinesterase, sequence (P22303 whole entry): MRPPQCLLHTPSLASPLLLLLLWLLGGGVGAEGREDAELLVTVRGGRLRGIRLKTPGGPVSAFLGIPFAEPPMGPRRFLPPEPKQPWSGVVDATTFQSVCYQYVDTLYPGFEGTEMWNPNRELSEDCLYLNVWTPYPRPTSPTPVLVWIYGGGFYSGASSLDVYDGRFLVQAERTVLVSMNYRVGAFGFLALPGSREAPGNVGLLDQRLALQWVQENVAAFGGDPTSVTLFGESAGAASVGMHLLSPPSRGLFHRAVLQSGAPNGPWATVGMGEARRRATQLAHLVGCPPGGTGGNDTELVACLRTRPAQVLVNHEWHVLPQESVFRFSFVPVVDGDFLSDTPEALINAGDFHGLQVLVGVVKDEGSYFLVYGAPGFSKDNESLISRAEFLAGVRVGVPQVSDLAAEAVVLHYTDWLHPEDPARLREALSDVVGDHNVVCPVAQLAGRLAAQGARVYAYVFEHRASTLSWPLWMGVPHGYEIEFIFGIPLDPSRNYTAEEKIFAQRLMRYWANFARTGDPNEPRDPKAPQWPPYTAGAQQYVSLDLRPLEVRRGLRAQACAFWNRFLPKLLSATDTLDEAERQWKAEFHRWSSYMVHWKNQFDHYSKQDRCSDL

Regarding `COc1cc(OC)c(C(=O)CCCN2CCCC2)c(OC)c1` [BUFLOMEDIL], the IC50 result in assay [1], in assay [2], in assay [3], in assay [4], in assay [5] (cho-k1) and in assay [6] was “Not Active” in each case. The Ki entry in assay [3] and in assay [6] was “Not Active” each time.

With `ClC(Cl)(Cl)Cl` [CARBON TETRACHLORIDE], the IC50 entry in assay [1], in assay [2], in assay [3], in assay [4], in assay [5] (cho-k1) and in assay [6] was “Not Active” each time. For the same compound, the Ki entry in assay [3] and in assay [6] was “Not Active” throughout.

As for `CO/N=C(\C(=O)N[C@@H]1C(=O)N2C(C(=O)O)=C(COC(C)=O)CS[C@H]12)c1csc(N)n1` [CEFOTAXIME], the IC50 result in assay [1], in assay [2], in assay [3], in assay [4], in assay [5] (cho-k1) and in assay [6] was “Not Active” in each case. In addition, the Ki entry in assay [3] and in assay [6] was “Not Active” in each case.

For the compound `CNC1=Nc2ccc(Cl)cc2C(c2ccccc2)=[N+]([O-])C1` [CHLORDIAZEPOXIDE], the IC50 result in assay [1], in assay [2], in assay [3], in assay [4], in assay [5] (cho-k1) and in assay [6] was “Not Active” throughout. The Ki entry in assay [3] and in assay [6] was “Not Active” in each case.

Turning to `Cc1cc(O)cc(C)c1Cl` [CHLOROXYLENOL], the IC50 result in assay [1], in assay [2], in assay [3], in assay [4], in assay [5] (cho-k1) and in assay [6] was “Not Active” each time. Moreover, the Ki entry in assay [3] and in assay [6] was “Not Active” each time.

As for `CCCNC(=O)NS(=O)(=O)c1ccc(Cl)cc1` [CHLORPROPAMIDE], the IC50 entry in assay [1], in assay [2], in assay [3], in assay [4], in assay [5] (cho-k1) and in assay [6] was “Not Active” in each case. In addition, the Ki entry in assay [3] and in assay [6] was “Not Active” in each case.

As to `NS(=O)(=O)c1cc(C2(O)NC(=O)c3ccccc32)ccc1Cl` (configuration not stated) [CHLORTHALIDONE], the concentration for half-maximal inhibition (IC50) entry in assay [1], in assay [2], in assay [3], in assay [4], in assay [5] (cho-k1) and in assay [6] was “Not Active” throughout. Besides, the inhibitory constant (Ki) result in assay [3] and in assay [6] was “Not Active” in each case.

On to `O=C(O)CC(O)(CC(=O)O)C(=O)O` [CITRIC ACID], for which the IC50 result in assay [1], in assay [2], in assay [3], in assay [4], in assay [5] (cho-k1) and in assay [6] was “Not Active” in each case. Also, the Ki entry in assay [3] and in assay [6] was “Not Active” each time.

For the compound `CC(C)NCC(O)c1ccccc1Cl` (configuration not stated) [CLORPRENALINE], the concentration for half-maximal inhibition (IC50) result in assay [1], in assay [2], in assay [3], in assay [4], in assay [5] (cho-k1) and in assay [6] was “Not Active” each time. Further, the inhibition constant Ki entry in assay [3] and in assay [6] was “Not Active” in each case.

On to `CN1CCN(C(c2ccccc2)c2ccccc2)CC1` [CYCLIZINE], for which the IC50 result in assay [1] was “Not Active”; in assay [2] it was “Not Active”; in assay [3] (read-out: IC50) it was 3130 nM; in assay [4] it was “Not Active”; in assay [5] (read-out: IC50), 633 nM; in assay [6], “Not Active”. Besides, the results for the inhibition constant Ki in assay [3] (read-out: Ki), in assay [5] (read-out: Ki) and in assay [6] were 2090 nM, 455 nM and “Not Active”, respectively.

Regarding `CN1C[C@@H]2C[C@H]1CN2c1cc2c(cc1F)c(=O)c(C(=O)O)cn2C1CC1` [DANOFLOXACIN], the IC50 result in assay [1], in assay [2], in assay [3], in assay [4], in assay [5] (cho-k1) and in assay [6] was “Not Active” in each case. The Ki entry in assay [3] and in assay [6] was “Not Active” throughout.

With `COc1cccc2c1C(=O)c1c(O)c3c(c(O)c1C2=O)C[C@@](O)(C(C)=O)C[C@@H]3O[C@H]1C[C@H](N)[C@H](O)[C@H](C)O1` [DAUNORUBICIN], the IC50 entry in assay [1], in assay [2], in assay [3], in assay [4], in assay [5] (cho-k1) and in assay [6] was “Not Active” throughout. The Ki entry in assay [3] and in assay [6] was “Not Active” in each case.

As to `O=C(O)c1cc(-c2ccc(F)cc2F)ccc1O` [DIFLUNISAL], the IC50 entry in assay [1], in assay [2], in assay [3], in assay [4], in assay [5] (cho-k1) and in assay [6] was “Not Active” in each case. For the same compound, the Ki result in assay [3] and in assay [6] was “Not Active” each time.

Consider `C[S+](C)[O-]` [DIMETHYL SULFOXIDE], for which the IC50 entry in assay [1], in assay [2], in assay [3], in assay [4], in assay [5] (cho-k1) and in assay [6] was “Not Active” each time. Further, the Ki entry in assay [3] and in assay [6] was “Not Active” in each case.

Turning to `CC1=NN(c2ccccc2)C(=O)C1` [EDARAVONE], the IC50 entry in assay [1], in assay [2], in assay [3], in assay [4], in assay [5] (cho-k1) and in assay [6] was “Not Active” in each case. In addition, the Ki entry in assay [3] and in assay [6] was “Not Active” each time.

With `CC(C)C[C@H]1C(=O)N2CCC[C@H]2[C@]2(O)O[C@](NC(=O)[C@@H]3C=C4c5cccc6[nH]cc(c56)C[C@H]4N(C)C3)(C(C)C)C(=O)N12` [ERGOCRYPTINE], the half-maximal inhibitory concentration (IC50) result in assay [1] is “Not Active”; in assay [2] it was “Not Active”; in assay [3] (read-out: IC50) it was 3.28 nM; in assay [4] it was “Not Active”; in assay [5] (cho-k1), “Not Active”; in assay [6] it was “Not Active”. For the same compound, the inhibitory constant (Ki) in assay [3] (read-out: Ki) was 2.19 nM; in assay [6] it was “Not Active”.

`C[C@]12CC[C@@H]3c4ccc(O)cc4CC[C@H]3[C@@H]1C[C@@H](O)[C@@H]2O` [ESTRIOL]: the IC50 entry in assay [1], in assay [2], in assay [3], in assay [4], in assay [5] (cho-k1) and in assay [6] was “Not Active” throughout. Also, the Ki result in assay [3] and in assay [6] was “Not Active” throughout.

Consider `C#C[C@]1(O)CC[C@H]2[C@@H]3CCC4=CC(=O)CC[C@]4(C)[C@H]3CC[C@@]21C` [ETHISTERONE], for which the IC50 entry in assay [1], in assay [2], in assay [3], in assay [4], in assay [5] (cho-k1) and in assay [6] was “Not Active” in each case. Moreover, the Ki entry in assay [3] and in assay [6] was “Not Active” in each case.

On to `CC(O)(P(=O)(O)O)P(=O)(O)O` [ETIDRONIC ACID], for which the 50% inhibitory concentration (IC50) entry in assay [1], in assay [2], in assay [3], in assay [4], in assay [5] (cho-k1) and in assay [6] was “Not Active” in each case. Also, the Ki result in assay [3] and in assay [6] was “Not Active” each time.

Take `CC(C)(C(=O)O)c1ccc(C(O)CCCN2CCC(C(O)(c3ccccc3)c3ccccc3)CC2)cc1` (configuration not stated) [FEXOFENADINE]: the IC50 result in assay [1], in assay [2], in assay [3], in assay [4], in assay [5] (cho-k1) and in assay [6] was “Not Active” in each case. The Ki result in assay [3] and in assay [6] was “Not Active” each time.

Regarding `CN1CCN(c2c(F)cc3c(=O)c(C(=O)O)cn(CCF)c3c2F)CC1` [FLEROXACIN], the IC50 result in assay [1], in assay [2], in assay [3], in assay [4], in assay [5] (cho-k1) and in assay [6] was “Not Active” in each case. Also, the Ki entry in assay [3] and in assay [6] was “Not Active” in each case.

Turning to `O=c1[nH]c(=O)n([C@H]2C[C@H](O)[C@@H](CO)O2)cc1F` [FLOXURIDINE], the IC50 entry in assay [1], in assay [2], in assay [3], in assay [4], in assay [5] (cho-k1) and in assay [6] was “Not Active” in each case. The inhibitory constant (Ki) result in assay [3] and in assay [6] was “Not Active” each time.

A word on the IC50: it is the concentration needed to halve the response being measured. As a reminder, the Ki is a measure of affinity in units of concentration, obtained from inhibition or displacement.
